Data from patent US20150017092A1, “DEVICES AND METHODS FOR DETERMINING SENSITIVITY TO RADIATION” (The Regents of the University of California, priority 2012, published 2015).

What was measured:
MCF10A = experiment: 53BP1 radiation induced foci (RIF) time response in MCF10A exposed to X-rays under ATM inhibition, fitted with Eq. 1; assay type: cell-based, human; conditions: for T1/2_1 (RIF induction half-life): 10 μM inhibitor; for α, RIF/Gy (absolute RIF yield): 10 μM inhibitor from 1 h pre-IR, one experiment
Text: To test the validity of the mathematical model further, we perturbed the rates of RIF formation or RIF removal by inhibiting ataxia telangiectasia mutated (ATM) kinase activity with KU55933 (see Materials and Methods).
The cells were fixed for immunofluorescence at specific intervals after exposure to X-rays. We typically refer to “low dose” or “high dose” as doses below or equal to 0.1 Gy or larger than 1 Gy, respectively. For high-LET IR, cells were irradiated at the accelerator beam line of the National Aeronautics and Space Administration Space […] Laboratory at Brookhaven National Laboratory.
We are only briefly describing these procedures. For complete information, see Supplemental Information Materials and Methods. Immunostaining using anti-53BP1 (rabbit polyclonal, Bethyl Laboratories A300-272A) was performed according to previous staining protocol (Costes et al. (2006) Radiat. Res. 165: 505-515). For image acquisition, both live and fixed MCF10A were imaged using a Zeiss plan-apochromat 40× dry objective (N.A. of 0.95) at a fixed exposure time. Nondeconvolved 3D stacks were acquired and used for image analysis (10 slices of 0.5-μm steps for fixed cells and 3 slices of 1-μm step for live cells). All image manipulations, foci analysis, and statistics were done with Matlab (MathWorks, Inc.) and DIPimage (image processing toolbox for Matlab, Delft University of Technology). In contrast to previous intensity-based methods for RIF identification (Bocker and Iliakis (2006) Radiat. Res. 165: 113-124), we used a pattern recognition approach to detect RIF by applying a wavelet morphological filter to enhance RIF peaks in the image while reducing noise from nonspecific signals (Olivo-Marin (2002) Pattern Recognition 35: 1989-1996). Nuclear space occupied by RIF was identified by applying a constant threshold on the wavelet filtered image, and watershed algorithm was used to separate touching RIF. To test if focus size could affect the accuracy of automatic RIF detection, we applied the software on simulated data where foci sizes and densities had different values (i.e., 1 to 40 foci/nucleus were simulated with four distinct sizes: 0.1, 0.4, 1.3, and 2.4 μm^3; FIG. 17). […] Finally, in order to extract the number of “real” RIF from the number of background foci in each scored nucleus, we introduced a background subtraction method that assumes the measured RIF distribution is the result of a convolution between the “real” RIF distribution and the background foci distribution (FIG. 18). For quantification of RIF in live cells, we counted both the cumulative and instantaneous number of RIF manually in 3D time-lapse images. Time interval varied between experiments and was generally set to 10-min interval for the first hour, followed by 30-min interval afterwards. This setting was optimum to minimize phototoxicity and specimen bleaching. Because of the difficulty of software to track individual foci in successive time lapse, analysis had to be done manually in a blind manner on processed images.
In order to interpret RIF kinetics in an unbiased manner, we introduce a simple mathematical model describing RIF formation where one DSB is detected at a rate k leading to one RIF, and one RIF is resolved after repair at a rate k2, assuming both processes are irreversible. This model can be noted as follows:
where α is the number of naked DSB/Gy before formation of RIF and D is the dose delivered to the cell. Alpha (α) should be constant for all doses. Further details are provided in the supporting information materials and methods regarding the way Eq. 1 is fitted.

[1] = biological target: T1, ataxia telangiectasia mutated (ATM) kinase (Homo sapiens, UniProt Q13315); experiment: Inhibition of ATM measured by Western blot of P53-S15p; assay type: cell-based; conditions: 10 μM inhibitor, MCF10A
T1 construct: endogenous in cells; host or cells: MCF10A (human mammary epithelial cells, ATCC)
T1 sequence (Q13315 whole entry, change not shown): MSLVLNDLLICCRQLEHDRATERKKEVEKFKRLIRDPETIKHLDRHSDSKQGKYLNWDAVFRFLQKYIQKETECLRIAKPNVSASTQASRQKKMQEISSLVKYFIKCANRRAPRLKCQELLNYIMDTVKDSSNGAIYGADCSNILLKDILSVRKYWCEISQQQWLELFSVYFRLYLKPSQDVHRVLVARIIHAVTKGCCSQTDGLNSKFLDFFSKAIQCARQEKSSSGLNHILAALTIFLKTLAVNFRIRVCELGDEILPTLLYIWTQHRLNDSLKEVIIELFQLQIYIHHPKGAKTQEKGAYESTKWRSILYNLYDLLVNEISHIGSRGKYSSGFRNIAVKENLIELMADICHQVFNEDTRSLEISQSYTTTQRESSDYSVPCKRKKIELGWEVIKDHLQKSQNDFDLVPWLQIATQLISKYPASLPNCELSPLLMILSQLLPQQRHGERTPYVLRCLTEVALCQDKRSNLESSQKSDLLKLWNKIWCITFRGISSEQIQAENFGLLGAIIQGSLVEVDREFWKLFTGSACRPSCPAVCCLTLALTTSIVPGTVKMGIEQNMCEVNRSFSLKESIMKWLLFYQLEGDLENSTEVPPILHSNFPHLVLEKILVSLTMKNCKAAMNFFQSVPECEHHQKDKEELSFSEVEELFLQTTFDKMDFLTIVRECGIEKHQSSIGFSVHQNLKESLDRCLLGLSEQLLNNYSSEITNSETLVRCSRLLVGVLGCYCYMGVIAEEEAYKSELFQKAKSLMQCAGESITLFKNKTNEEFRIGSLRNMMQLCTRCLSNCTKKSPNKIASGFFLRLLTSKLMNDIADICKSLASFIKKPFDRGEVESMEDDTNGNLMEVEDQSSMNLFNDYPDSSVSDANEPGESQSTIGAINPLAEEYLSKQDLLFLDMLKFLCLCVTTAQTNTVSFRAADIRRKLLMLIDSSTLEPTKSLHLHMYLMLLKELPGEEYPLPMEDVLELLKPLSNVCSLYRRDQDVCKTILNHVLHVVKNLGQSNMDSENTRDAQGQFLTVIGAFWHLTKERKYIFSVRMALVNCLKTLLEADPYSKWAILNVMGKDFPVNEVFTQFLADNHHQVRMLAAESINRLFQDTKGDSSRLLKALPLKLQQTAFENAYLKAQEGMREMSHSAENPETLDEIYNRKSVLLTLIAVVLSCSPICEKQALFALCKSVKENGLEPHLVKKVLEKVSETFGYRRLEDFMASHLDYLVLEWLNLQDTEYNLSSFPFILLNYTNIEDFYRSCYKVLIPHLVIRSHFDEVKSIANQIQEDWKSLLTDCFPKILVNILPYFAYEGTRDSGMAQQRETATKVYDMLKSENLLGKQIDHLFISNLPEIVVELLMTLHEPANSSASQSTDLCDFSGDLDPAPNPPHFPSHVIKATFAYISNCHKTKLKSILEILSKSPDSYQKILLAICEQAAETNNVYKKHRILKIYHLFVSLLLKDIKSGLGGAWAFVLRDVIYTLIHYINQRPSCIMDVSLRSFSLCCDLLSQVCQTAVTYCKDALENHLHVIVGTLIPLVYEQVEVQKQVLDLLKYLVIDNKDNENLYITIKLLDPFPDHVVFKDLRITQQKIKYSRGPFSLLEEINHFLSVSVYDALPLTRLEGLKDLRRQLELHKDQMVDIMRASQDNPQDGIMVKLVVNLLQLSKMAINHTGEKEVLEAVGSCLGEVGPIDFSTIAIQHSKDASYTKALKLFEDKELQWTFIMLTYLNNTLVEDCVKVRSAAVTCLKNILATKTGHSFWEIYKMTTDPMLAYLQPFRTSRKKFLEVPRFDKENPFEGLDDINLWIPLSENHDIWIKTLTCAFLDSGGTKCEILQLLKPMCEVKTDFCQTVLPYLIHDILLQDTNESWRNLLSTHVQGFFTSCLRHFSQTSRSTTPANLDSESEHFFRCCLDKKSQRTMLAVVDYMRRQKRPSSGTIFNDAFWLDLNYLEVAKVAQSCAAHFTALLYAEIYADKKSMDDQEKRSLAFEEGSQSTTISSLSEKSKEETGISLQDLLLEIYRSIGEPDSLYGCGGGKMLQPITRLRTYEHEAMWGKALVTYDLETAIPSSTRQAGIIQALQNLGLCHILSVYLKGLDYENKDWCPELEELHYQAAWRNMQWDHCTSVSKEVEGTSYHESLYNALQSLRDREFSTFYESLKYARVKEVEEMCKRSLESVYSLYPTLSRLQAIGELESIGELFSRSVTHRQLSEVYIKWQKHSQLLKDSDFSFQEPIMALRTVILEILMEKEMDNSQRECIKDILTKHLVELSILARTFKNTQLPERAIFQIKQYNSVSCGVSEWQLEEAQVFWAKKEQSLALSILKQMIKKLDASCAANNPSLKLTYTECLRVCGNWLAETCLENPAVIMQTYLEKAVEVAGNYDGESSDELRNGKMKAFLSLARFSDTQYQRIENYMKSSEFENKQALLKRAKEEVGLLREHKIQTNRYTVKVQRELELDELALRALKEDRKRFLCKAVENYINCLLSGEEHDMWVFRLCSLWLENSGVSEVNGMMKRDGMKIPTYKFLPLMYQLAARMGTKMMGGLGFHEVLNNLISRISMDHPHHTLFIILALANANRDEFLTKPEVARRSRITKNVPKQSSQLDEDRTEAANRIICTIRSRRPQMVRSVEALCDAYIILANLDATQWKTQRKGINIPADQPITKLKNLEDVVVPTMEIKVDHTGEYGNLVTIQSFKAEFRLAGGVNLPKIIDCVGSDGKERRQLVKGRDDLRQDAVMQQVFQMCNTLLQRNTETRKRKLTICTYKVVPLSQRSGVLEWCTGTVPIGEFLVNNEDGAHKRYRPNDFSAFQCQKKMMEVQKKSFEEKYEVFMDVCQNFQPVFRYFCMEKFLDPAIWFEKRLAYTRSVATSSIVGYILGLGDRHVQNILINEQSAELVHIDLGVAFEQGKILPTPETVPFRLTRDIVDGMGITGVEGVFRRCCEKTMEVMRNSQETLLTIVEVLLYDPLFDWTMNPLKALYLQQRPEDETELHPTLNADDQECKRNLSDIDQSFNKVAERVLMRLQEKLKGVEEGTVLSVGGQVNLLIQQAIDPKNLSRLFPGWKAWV

## O=c1cc(-c2cccc3c2Sc2ccccc2S3)oc(N2CCOCC2)c1 [KU55933]
MCF10A; 0.1 Gy X-rays
  T1/2_1 (RIF induction half-life): 8.3 min
  α, RIF/Gy (absolute RIF yield): 25±17 RIF/Gy
MCF10A; 0.1 Gy X-rays, listed as ATM inhibition
  α, RIF/Gy (absolute RIF yield): 25 RIF/Gy
MCF10A; 0.4 Gy X-rays
  T1/2_1 (RIF induction half-life): 5.9 min
  α, RIF/Gy (absolute RIF yield): 25 RIF/Gy
MCF10A; 1 Gy X-rays
  T1/2_1 (RIF induction half-life): 4.2 min
  α, RIF/Gy (absolute RIF yield): 19 RIF/Gy
MCF10A; 2 Gy X-rays
  T1/2_1 (RIF induction half-life): 2.6 min
  α, RIF/Gy (absolute RIF yield): 12±2 RIF/Gy
MCF10A; 2 Gy X-rays, listed as ATM inhibition
  α, RIF/Gy (absolute RIF yield): 12 RIF/Gy
MCF10A; across all doses
  detection half-lives with versus without ATM inhibition: comparable
MCF10A; after 0.1 Gy of X-rays
  reduction of α versus normal conditions: 3 fold
MCF10A; after 2 Gy of X-rays
  reduction of α versus normal conditions: no significant reduction
MCF10A; at high doses
  RIF resolution with versus without ATM inhibition: significantly slower
MCF10A; under ATM inhibition
  drop of RIF yield between 0.1 and 2 Gy: 2 fold
MCF10A; under ATM inhibition versus normal media
  overall number of RIF: largely diminished
[1]
  phosphorylated p53 at S15: reduction
